Measurements as given in patent publication US11690847B2, “Combinations of 15-PGDH inhibitors with corticosteroids and/or TNF inhibitors and uses thereof” (CASE WESTERN RESERVE UNIVERSITY, priority 2016, dated 2023).

Experiments:
[1] = tested on: DSS induced colitis; assay: dextran sodium sulfate (DSS) induced colitis, 2% DSS days 1-7, SW033291 versus vehicle; format: in vivo, FVB male mice
Description: In the study, 8-12 week old FVB male mice were fed with 2% DSS in drinking water for days 1-7, and then switched to normal drinking water beginning on day 8, and continued through day 22. […] Clinical scoring (body weight, rectal bleeding, stool consistency) was recorded daily, endoscopic scoring (ulcer number, mucosal thickening, and vascular pattern) was assessed on days 8, 11, 15. Mice were sacrificed on days 1, 8, 15 and 22 for assessment of colon length, colon weight, ulcer number, ulcer area, and crypt damage.
The Disease Activity Index is calculated as an equally weighted average of the change from baseline weight, the consistency of stool, and the presence of rectal bleeding, with each component normalized to span an identical numerical range.
In addition to the gross visual inspection and scoring of colitis activity by the MEICS index, full length colons of mice were formalin fixed and paraffin embedded, and microscopic scoring of crypt damage was performed using the 0-4 severity scale of Cooper H S. Et al., Lab Invest. 1993; 69:238-249. For this analysis, the colons were divided into 3 segments of proximal, middle, and distal colon, each approximately 1.6 cm in length, with each segment was further subdivided into 4 sections each approximately 4 mm in length. For each section the crypt damage severity score was multiplied by the length in mm of the damaged area, creating a 0-16 cryptitis severity index. An average cryptitis severity index was calculated for each segment (proximal, middle, and distal colon), and the summed whole colon cryptitis severity index was determined on a scale of 0-48 for each mouse colon.
Mice were injected with BrdU at 100 mg/kg IP 3 hours before sacrifice and then full length colons were formalin fixed and embedded in paraffin. S-phase cells, that have incorporated BrdU into DNA, were visualized by immuno-fluorescent staining of 5 μm thick sections with an antibody that detects the BrdU. Colonic crypts were visualized by immuno-fluorescent staining with an antibody to the epithelial marker E-Cadherin. […] Red immune-fluorescence identifies BrdU positive nuclei, and green immune-fluorescence identifies E-Cadherin positive colonocytes. The number of BrdU positive cell per crypt is determined by counting the number of dual labeled red and green cells per average crypt. Green only cells that are not in S-phase are not counted, and red only cells, that are likely stromal cells outside of crypts, are also not counted. […] The graph depicts the sum of the average number of BrdU positive cells per crypt in the distal colon plus the average number of BrdU positive cells per crypt middle colons of control (Cn), […] treated (Tx), and 15-PGDH knockout mice (KO) on day 1, day 8, and day 15 of the DSS treatment protocol.

[2] = tested on: DSS induced colitis; assay: DSS colitis treatment study: (+) SW033291, dexamethasone or combination from day 8; format: in vivo, mice; conditions: (+) SW033291 5 mpk IP twice daily, dexamethasone 0.06 mpk IP daily
[3] = stability on incubation with hepatocyte extracts; format: in vitro ADME
[4] = stability on incubation with hepatocyte cell lines; format: in vitro ADME
[5] = stability on incubation with mouse liver extracts; format: in vitro ADME
[6] = stability on incubation with rat liver extracts; format: in vitro ADME
[7] = stability on incubation with human liver extracts; format: in vitro ADME

In the case of `CCCC[S+]([O-])c1sc2nc(-c3cccs3)cc(-c3ccccc3)c2c1N` (centres unmarked) [SW033291], the “average change from baseline weight versus control” value ([1]; 5 mg/kg IP twice daily, 22 days, FIG. 1) is reported as “greater weight at all time points”, the “weight gain after washout of DSS versus control” value ([1]; 5 mg/kg IP twice daily, P=0.001, FIG. 1) is reported as “faster weight gain” and the “Wt @sacrifice” value ([1]; Baseline) is reported as 25.9 ± 0.7 gm. The “Wt @sacrifice” value ([1]; Day 8) was 26.4 ± 0.5 gm, the “Wt @sacrifice” value ([1]; Day 15) was 25.2 ± 0.9 gm and the “Wt @sacrifice” value ([1]; Day 22) was 28.2 ± 0.5 gm. The “body weight versus vehicle control (in words)” value ([1]; day 22) was “greater body weight”, the “colon length versus vehicle control (in words)” value ([1]; day 22) was “greater colon lengths” and the “ulcer formation prevented (colonoscopy)” value ([1]; days 8, 11, 15, versus control, FIG. 4A) was “two-thirds”. The “MEICS score versus vehicle” value ([1]; days 8, 11 and 15, FIG. 7) was “significantly less colitis activity”.
In the case of `CCCC[S+]([O-])c1sc2nc(-c3cccs3)cc(-c3ccccc3)c2c1N` (single isomer, unassigned; (+)) [(+) SW033291], the “daily weights (weight loss)” value ([2]; days 1-17, from day 8, FIG. 15) is reported as “some amelioration of weight loss”.
With `CCCC[S+]([O-])c1sc2nc(-c3cccs3)cc(-c3ccccc3)c2c1N` (centres unmarked) [formula (IX)] the “chemical stability when incubated with hepatocyte extracts” value [3] was “chemically stable” and the “chemical stability when incubated with hepatocyte cell lines” value [4] was “chemically stable”.
In the case of `C[C@@H]1C[C@H]2[C@@H]3CCC4=CC(=O)C=C[C@]4(C)[C@@]3(F)[C@@H](O)C[C@]2(C)[C@@]1(O)C(=O)CO` [dexamethasone, reference compound], the “percent decrease in total DAI (relative disease reduction)” value ([2]; area under the DAI curve, FIG. 17B) is reported as 15%.
In the case of `CCCC[S+]([O-])c1sc2nc(-c3nccs3)cc(-c3cnc(C)n3C)c2c1N` (centres unmarked) [formula (X)], the “chemical stability when incubated with liver extracts” value [5] is reported as “chemically stable”, the “chemical stability when incubated with liver extracts” value [6] is reported as “chemically stable” and the “chemical stability when incubated with liver extracts” value [7] is reported as “chemically stable”.
